PMC9516332 (Frontiers in Oncology, 2022)
Like-named read-outs stand apart in the source and are kept apart here.

Columns and labels:
134 cancer cell lines [1] = experiment: Cell viability assay (ATPlite, 72 hours), IC50 on cancer cell line panel
[2] = target: panel of 255 wild-type kinases (Homo sapiens, UniProt P42684); experiment: Kinase panel profiling at 1 µmol/L (MSA or IMAP), percentage inhibition; assay type: biochemical; settings: ARG kinase assay; 1 µmol/L single concentration; read-out: %-inhibition ARG
[3] = target: panel of 255 wild-type kinases (Homo sapiens, UniProt O00311); experiment: as above; assay type: biochemical; settings: CDC7/ASK kinase assay; 1 µmol/L single concentration; read-out: %-inhibition CDC7/ASK
134 cancer cell lines [4] = system: 134 cancer cell lines

## Cn1cnc2c(F)c(Nc3ccc(Br)cc3Cl)c(C(=O)NOCCO)cc21 [selumetinib]
134 cancer cell lines [1]; Homo sapiens, MeWo, read-out: IC50 in cell proliferation assay, MeWo cell line
  IC50: 5400 nM
134 cancer cell lines [1]; Homo sapiens, NCCIT, read-out: IC50 in cell proliferation assay, NCC-IT cell line
  IC50: 25900 nM
134 cancer cell lines [1]; Homo sapiens, NCI-H82, read-out: IC50 in cell proliferation assay, cell line NCI-H82
  IC50: 6840 nM
134 cancer cell lines [1]; Homo sapiens, NCI-H460, read-out: IC50 in cell proliferation assay, NCI-H460 cell line
  IC50: 297 nM
134 cancer cell lines [1]; Homo sapiens, NCI-H661, read-out: IC50 in cell proliferation assay, NCI-H661 cell line
  IC50: > 31600 nM
134 cancer cell lines [1]; Homo sapiens, NCI-H716, read-out: IC50 in cell proliferation assay, cell line NCI-H716 (FGFR2-COL14A1)
  IC50: 197 nM
134 cancer cell lines [1]; Homo sapiens, NCI-H1650, read-out: IC50 in cell proliferation assay, NCI-H1650 cell line (EGFR exon19del)
  IC50: > 31600 nM
134 cancer cell lines [1]; Homo sapiens, NCI-H1975, read-out: IC50 in cell proliferation assay, NCI-H1975 cell line (EGFR p.L858R + p.T790M)
  IC50: 1920 nM
134 cancer cell lines [1]; Homo sapiens, NCI-H2228, read-out: IC50 in cell proliferation assay, NCI-H2228 cell line (EML4-ALK)
  IC50: 294 nM
134 cancer cell lines [1]; Homo sapiens, OVCAR-3, read-out: IC50 in cell proliferation assay, cell line OVCAR-3
  IC50: > 31600 nM
134 cancer cell lines [1]; Homo sapiens, PFSK-1, read-out: IC50 in cell proliferation assay, cell line PFSK-1
  IC50: > 31600 nM
134 cancer cell lines [1]; Homo sapiens, RL95-2, read-out: IC50 in cell proliferation assay, cell line RL95-2 (EGFR p.A289V)
  IC50: 12 nM
134 cancer cell lines [1]; Homo sapiens, RPMI-7951, read-out: IC50 in cell proliferation assay, cell line RPMI-7951 (BRAF p.V600E)
  IC50: 143 nM
134 cancer cell lines [1]; Homo sapiens, RS4-11, read-out: IC50 in cell proliferation assay, cell line RS4;11
  IC50: 18200 nM
134 cancer cell lines [1]; Homo sapiens, Rec1, read-out: IC50 in cell proliferation assay, cell line REC-1
  IC50: > 31600 nM
134 cancer cell lines [1]; Homo sapiens, SHP77, read-out: IC50 in cell proliferation assay, cell line SHP-77
  IC50: > 31600 nM
134 cancer cell lines [1]; Homo sapiens, SK-BR-3, read-out: IC50 in cell proliferation assay, cell line SK-BR-3 (ERBB2 amplification)
  IC50: > 31600 nM
134 cancer cell lines [1]; Homo sapiens, SK-N-AS, read-out: IC50 in cell proliferation assay, cell line SK-N-AS
  IC50: 20 nM
134 cancer cell lines [1]; Homo sapiens, SK-N-FI, read-out: IC50 in cell proliferation assay, cell line SK-N-FI
  IC50: 8410 nM
134 cancer cell lines [1]; Homo sapiens, SK-N-MC, read-out: IC50 in cell proliferation assay, cell line SK-N-MC
  IC50: > 31600 nM
134 cancer cell lines [1]; Homo sapiens, SK-N-SH, read-out: IC50 in cell proliferation assay, cell line SK-N-SH (ALK p.F1174L)
  IC50: 66 nM
134 cancer cell lines [1]; Homo sapiens, SNU-5, read-out: IC50 in cell proliferation assay, cell line SNU-5 (MET amplification)
  IC50: 1310 nM
134 cancer cell lines [1]; Homo sapiens, SNU-16, read-out: IC50 in cell proliferation assay, cell line SNU-16 (FGFR2 amplification)
  IC50: > 31600 nM
134 cancer cell lines [1]; Homo sapiens, SNU-C2B, read-out: IC50 in cell proliferation assay, cell line SNU-C2B (EGFR p.R165Q)
  IC50: 36 nM
134 cancer cell lines [1]; Homo sapiens, SU-DHL-1, read-out: IC50 in cell proliferation assay, cell line SU-DHL-1 (NPM1-ALK)
  IC50: 7710 nM
134 cancer cell lines [1]; Homo sapiens, SU-DHL-6, read-out: IC50 in cell proliferation assay, cell line SU-DHL-6
  IC50: > 31600 nM
134 cancer cell lines [1]; Homo sapiens, SUP-T1, read-out: IC50 in cell proliferation assay, cell line SUP-T1
  IC50: > 31600 nM
134 cancer cell lines [1]; Homo sapiens, SW48, read-out: IC50 in cell proliferation assay, cell line SW48 (EGFR p.G719S)
  IC50: 34 nM
134 cancer cell lines [1]; Homo sapiens, SW480, read-out: IC50 in cell proliferation assay, cell line SW480
  IC50: 29 nM
134 cancer cell lines [1]; Homo sapiens, SW626, read-out: IC50 in cell proliferation assay, cell line SW626
  IC50: 44 nM
134 cancer cell lines [1]; Homo sapiens, SW780, read-out: IC50 in cell proliferation assay, cell line SW780 (FGFR3-BAIAP2L1)
  IC50: 447 nM
134 cancer cell lines [1]; Homo sapiens, SW837, read-out: IC50 in cell proliferation assay, cell line SW837
  IC50: 220 nM
134 cancer cell lines [1]; Homo sapiens, SW872, read-out: IC50 in cell proliferation assay, cell line SW872 (BRAF p.V600E)
  IC50: 25 nM
134 cancer cell lines [1]; Homo sapiens, SW900, read-out: IC50 in cell proliferation assay, cell line SW900
  IC50: 35 nM
134 cancer cell lines [1]; Homo sapiens, SW948, read-out: IC50 in cell proliferation assay, cell line SW948
  IC50: 62 nM
134 cancer cell lines [1]; Homo sapiens, SW982, read-out: IC50 in cell proliferation assay, cell line SW982 (BRAF p.V600E)
  IC50: 972 nM
134 cancer cell lines [1]; Homo sapiens, SW-620, read-out: IC50 in cell proliferation assay, cell line SW620
  IC50: 24 nM
134 cancer cell lines [1]; Homo sapiens, T98G, read-out: IC50 in cell proliferation assay, cell line T98G
  IC50: > 31600 nM
134 cancer cell lines [1]; Homo sapiens, TCC-SUP, read-out: IC50 in cell proliferation assay, cell line TCCSUP
  IC50: > 31600 nM
134 cancer cell lines [1]; Homo sapiens, THP-1, read-out: IC50 in cell proliferation assay, cell line THP-1
  IC50: 25 nM
134 cancer cell lines [1]; Homo sapiens, U2OS, read-out: IC50 in cell proliferation assay, cell line U2OS
  IC50: 10600 nM
134 cancer cell lines [1]; Homo sapiens, U-87 MG, read-out: IC50 in cell proliferation assay, cell line U-87MG ATCC
  IC50: 1090 nM
134 cancer cell lines [1]; Homo sapiens, U-118-MG, read-out: IC50 in cell proliferation assay, cell line U-118MG
  IC50: > 31600 nM
134 cancer cell lines [1]; Homo sapiens, UMUC3, read-out: IC50 in cell proliferation assay, cell line UM-UC-3
  IC50: 801 nM
134 cancer cell lines [1]; Hs766T, read-out: IC50 in cell proliferation assay, Hs 766T cell line
  IC50: 22 nM
134 cancer cell lines [1]; L-82, read-out: IC50 in cell proliferation assay, L-82 cell line (NPM1-ALK)
  IC50: 950 nM
134 cancer cell lines [1]; Rh30, read-out: IC50 in cell proliferation assay, cell line Rh30
  IC50: > 31600 nM
134 cancer cell lines [1]; read-out: IC50 in cell proliferation assay, 11-18 cell line (EGFR p.L858R)
  IC50: > 31600 nM
134 cancer cell lines [1]; read-out: IC50 in cell proliferation assay, Hs 852.T cell line
  IC50: 345 nM
134 cancer cell lines [1]; read-out: IC50 in cell proliferation assay, JAR cell line
  IC50: > 31600 nM
134 cancer cell lines [1]; read-out: IC50 in cell proliferation assay, cell line 5637
  IC50: 8000 nM
134 cancer cell lines [1]; read-out: IC50 in cell proliferation assay, cell line A-388
  IC50: > 31600 nM
134 cancer cell lines [1]; read-out: IC50 in cell proliferation assay, cell line DB
  IC50: > 31600 nM
134 cancer cell lines [1]; read-out: IC50 in cell proliferation assay, cell line DEL (NPM1-ALK)
  IC50: > 31600 nM
134 cancer cell lines [1]; read-out: IC50 in cell proliferation assay, cell line ES-2 (BRAF p.V600E)
  IC50: 242 nM
134 cancer cell lines [1]; read-out: IC50 in cell proliferation assay, cell line PA-1
  IC50: 556 nM
134 cancer cell lines [1]; read-out: IC50 in cell proliferation assay, cell line PC-3
  IC50: > 31600 nM
134 cancer cell lines [1]; read-out: IC50 in cell proliferation assay, cell line RD
  IC50: 59 nM
134 cancer cell lines [1]; read-out: IC50 in cell proliferation assay, cell line RKO (BRAF p.V600E)
  IC50: 367 nM
134 cancer cell lines [1]; read-out: IC50 in cell proliferation assay, cell line RL
  IC50: > 31600 nM
134 cancer cell lines [1]; read-out: IC50 in cell proliferation assay, cell line RT-4 (FGFR3-TACC3)
  IC50: 21300 nM
134 cancer cell lines [1]; read-out: IC50 in cell proliferation assay, cell line SR (NPM1-ALK)
  IC50: 25500 nM
134 cancer cell lines [1]; read-out: IC50 in cell proliferation assay, cell line T24
  IC50: 92 nM
134 cancer cell lines [1]; read-out: IC50 in cell proliferation assay, cell line TT (RET p.C634W)
  IC50: > 31600 nM
134 cancer cell lines [1]; read-out: IC50 in cell proliferation assay, cell line VA-ES-BJ
  IC50: > 31600 nM
[2]
  inhibition at 1 µM: 1.6%
[3]
  inhibition at 1 µM: -0.0396%
134 cancer cell lines [4]
  IC50: 99 nM
